What was measured:
[1] = Kinetic solubility; format: physicochemical; conditions: listed as compound of the formula A
Experimental: (§1) In order to test the physicochemical properties of the adenosine derivative of the inventive concept, experiments were conducted on the compound of the formula A in vitro, and the results are shown in Table 3. Plasma stability and protein binding were measured using rat and human plasma.

[2] = Equilibrium solubility; format: physicochemical; conditions: listed as compound of the formula A
Experimental: as §1

[3] = Plasma stability, rat plasma; format: in vitro ADME
Experimental: as §1

[4] = Plasma stability, human plasma; format: in vitro ADME
Experimental: as §1

[5] = Pharmacokinetic test in rats (Experimental Examples 3 and 4); format: in vivo; conditions: male, SD, rat, plasma, po
Experimental: In order to test the ADME properties of the adenosine derivative of the inventive concept after oral administration, pharmacokinetic properties of the compound of the formula A were measured in vivo.
Intravenous administration was performed through a tube inserted into the femoral vein, and oral administration was performed using oral gavage.
After the administration, the experimental animals' blood was taken at predetermined time intervals for 24 hours. Then, the blood was centrifuged to separate plasma. The plasma samples were pretreated with a suitable organic solvent, and then the concentration of the plasma samples was analyzed by LC-MS/MS. The blood concentration-time data of the compound of the formula A was analyzed using WinNonlin (Pharsight, USA), and graphs of the blood concentration-time data are shown in FIGS. 5 through 9. The results of noncompartmental pharmacokinetic parameters calculated from the blood concentration-time data are shown in Tables 5 through 9. In FIGS. 5 through 9, I.V. represents an intravenous administration group, P.O. represents an oral administration group, and the definition of each parameter in Tables 5 through 9 is shown in Table 10.
Thus, the adenosine derivative of the inventive concept is more suitable for oral administration than for intravenous administration.

[6] = tested on: Sprague Dawley rats; assay: Toxicity after intraperitoneal injection, rats; format: in vivo; conditions: intraperitoneal 20, 10 and 1 mg/kg
Experimental: The Adenosine Derivative of the present invention were assayed for cytotoxicity in animals.

[7] = Cytotoxicity, Cyto X cell viability assay kit; format: cell-based; conditions: in each cell line
[8] = tested on: each cell line; assay: Cytotoxicity, Cyto X cell viability assay kit; format: cell-based; conditions: summary Table 11
[9] = molecular target: hERG channel protein (Homo sapiens, UniProt Q12809); assay: hERG ligand binding assay (fluorescence polarization)
Chain of hERG channel protein (Q12809 whole entry): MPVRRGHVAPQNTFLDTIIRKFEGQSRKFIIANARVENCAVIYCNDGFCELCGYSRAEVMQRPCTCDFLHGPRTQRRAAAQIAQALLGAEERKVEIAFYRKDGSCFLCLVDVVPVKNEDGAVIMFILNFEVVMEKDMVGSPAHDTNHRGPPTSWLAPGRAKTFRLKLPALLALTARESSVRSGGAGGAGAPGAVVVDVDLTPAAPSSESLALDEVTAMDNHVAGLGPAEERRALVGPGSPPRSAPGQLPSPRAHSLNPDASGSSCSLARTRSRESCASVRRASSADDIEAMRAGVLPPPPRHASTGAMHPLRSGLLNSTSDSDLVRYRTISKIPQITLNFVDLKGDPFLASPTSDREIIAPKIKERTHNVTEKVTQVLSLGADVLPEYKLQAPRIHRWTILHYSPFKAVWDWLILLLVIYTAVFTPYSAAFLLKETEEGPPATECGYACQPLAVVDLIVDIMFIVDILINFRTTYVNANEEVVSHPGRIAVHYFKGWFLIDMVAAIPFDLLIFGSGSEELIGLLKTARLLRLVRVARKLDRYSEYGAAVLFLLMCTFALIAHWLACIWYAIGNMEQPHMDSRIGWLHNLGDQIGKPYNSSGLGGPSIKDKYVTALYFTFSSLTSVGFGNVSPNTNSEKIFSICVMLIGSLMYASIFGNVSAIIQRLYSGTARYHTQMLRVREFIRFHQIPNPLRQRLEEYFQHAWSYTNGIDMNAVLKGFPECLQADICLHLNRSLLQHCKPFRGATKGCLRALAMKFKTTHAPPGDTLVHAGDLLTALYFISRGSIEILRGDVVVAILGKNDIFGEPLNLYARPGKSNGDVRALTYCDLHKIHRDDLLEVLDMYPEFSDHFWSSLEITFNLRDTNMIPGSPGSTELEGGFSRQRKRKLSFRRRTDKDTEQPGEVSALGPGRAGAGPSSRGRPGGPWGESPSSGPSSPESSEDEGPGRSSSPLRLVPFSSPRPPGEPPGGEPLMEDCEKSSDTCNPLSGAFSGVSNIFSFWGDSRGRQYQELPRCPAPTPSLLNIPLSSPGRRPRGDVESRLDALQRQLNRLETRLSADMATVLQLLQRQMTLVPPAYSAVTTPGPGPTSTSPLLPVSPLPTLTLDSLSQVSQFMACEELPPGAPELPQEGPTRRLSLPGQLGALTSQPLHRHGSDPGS
Excerpt: In order to test the hERG ligand binding assay of the compound of the formula A, a non-electrophysiological method was used to evaluate heart stability by evaluating fluorescence polarization according to the degree of hERG channel protein binding of a red fluorescent hERG channel ligand tracer.

[10] = tested on: histidine-requiring Salmonella (strains TA98, TA100, TA1535 and TA1537) and tryptophan-requiring Escherichia coli (strain WP2uvrA (pKM101)); format: cell-based
Experimental: In order to test the genotoxicity of the compound of the formula A, the gene mutagenicity of the compound of the formula A was evaluated in the presence and absence of metabolic activation by using histidine-requiring Salmonella (strains TA98, TA100, TA1535 and TA1537) and tryptophan-requiring Escherichia coli (strain WP2uvrA (pKM101)).

[11] = Storage stability of oral administration agent in 0.5 wt % methylcellulose (UPLC); format: physicochemical
Experimental: 0.5 wt % methylcellulose, which can be used as an excipient for oral administration, was added to the compound of the formula A, sonicated and homogenized, and then divided into a group to be stored at room temperature or at 4° C., and after 1, 3, 7, and 10 days, the stability was measured by comparing the concentration with 0.5% methyl cellulose as the control group using Waters UPLC and he results are shown in Table 12.

[12] = molecular target: T1, A1 adenosine receptor (Homo sapiens, UniProt P30542); assay: Radioligand binding affinity, A1 adenosine receptor ([3H]CCPA, CHO cells); parameters: % hA1: dose or concentration left out as unconfirmed; conditions: percentage inhibition of specific binding of [3H]CCPA
T1 construct: expressed in transfected cells; host or cells: CHO cells (ATCC No. CCL-61)
T1 sequence (P30542 1-326): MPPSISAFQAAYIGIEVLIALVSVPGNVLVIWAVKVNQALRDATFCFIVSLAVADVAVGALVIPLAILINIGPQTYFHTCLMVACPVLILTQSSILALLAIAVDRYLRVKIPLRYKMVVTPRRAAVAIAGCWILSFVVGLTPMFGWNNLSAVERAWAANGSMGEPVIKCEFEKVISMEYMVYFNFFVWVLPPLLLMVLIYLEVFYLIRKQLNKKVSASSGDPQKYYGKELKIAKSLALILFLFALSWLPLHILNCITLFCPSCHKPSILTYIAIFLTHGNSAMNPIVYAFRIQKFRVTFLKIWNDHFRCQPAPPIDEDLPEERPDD
Experimental: CHO cells (ATCC No. CCL-61), in which A1 and A3 adenosine receptors were expressed, were cultured in F-12 media (Gibco, U.S.A.) supplemented with 10% fetal bovine serum (FBS) and penicillin/streptomycin (100 units/ml and 100 g/ml), at 37° C. in a 5% CO2 atmosphere. […] Incubation for 1 hr in a 37° C. incubator was followed by rapid filtration in a vacuum using a cell collector (TOMTEC, U.S.A.). Subsequently, the test tubes were washed three times with 3 ml of the buffer before radioactivity was measured using a γ-counter. […] Ki for binding affinity was determined by subtracting the non-specific binding value from the total binding value. On the basis of the specific binding values, the samples were analyzed for binding affinity to various adenosine receptors.

[13] = molecular target: T2, A2A adenosine receptor (Homo sapiens, UniProt P29274); assay: Radioligand binding affinity, A2A adenosine receptor ([3H]CGS-21680, HEK 293 cell); conditions: percentage inhibition of specific binding of 10 µM
T2 construct: expressed in transfected cells; host or cells: HEK 293 cell
T2 sequence (P29274 whole entry): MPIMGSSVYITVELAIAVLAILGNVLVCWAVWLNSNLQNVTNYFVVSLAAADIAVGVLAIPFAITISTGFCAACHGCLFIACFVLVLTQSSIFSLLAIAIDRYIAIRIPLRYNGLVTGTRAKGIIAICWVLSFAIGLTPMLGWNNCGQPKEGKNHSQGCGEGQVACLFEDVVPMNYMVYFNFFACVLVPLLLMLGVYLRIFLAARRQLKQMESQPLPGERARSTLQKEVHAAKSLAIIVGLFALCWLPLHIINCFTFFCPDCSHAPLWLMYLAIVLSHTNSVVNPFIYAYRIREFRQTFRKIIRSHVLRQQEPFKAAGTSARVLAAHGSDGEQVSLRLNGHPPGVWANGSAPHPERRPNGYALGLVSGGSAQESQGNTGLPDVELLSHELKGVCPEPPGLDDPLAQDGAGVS
Experimental: The adenosine derivatives of the present invention were assayed for binding affinity and selectivity for A1, A2A and A3 receptors among human adenosine receptor (hAR) as follows.
Adenosine deaminase was added alone or in combination with a radioactive ligand when cerebral meninges were incubated at 30° C. for 30 min. Each of the compounds synthesized in the examples was measured for IC50 at least 6 different concentrations, and the measurements were analyzed using SigmaPlot software to determine Ki values.

[14] = tested on: rats; conditions: rat, in vivo
Experimental: (§2) In order to test the single-dose toxicity of the compound of the formula A, a single dose of 2,000 mg/kg of the compound of the formula A was administered to each of five male rats and five female rats.

[15] = tested on: rats; assay: Single-dose toxicity in rats; conditions: summary Table 11
Experimental: as §2

## O[C@@H]1[C@H](O)CS[C@H]1n1cnc2c(NCc3cccc(Cl)c3)nc(Cl)nc21 [Example 2, (2R,3R,4S)-2-(2-chloro-6-(3-chlorobenzylamino)-9H-purin-9-yl)tetrahydrothiophen-3,4-diol]
[1]
  Kinetic solubility: 148.8 µg/mL
[2]
  Equilibrium solubility: 2.76 µg/mL
[3]
  Plasma stability: > 99.9
[4]
  Plasma stability: 98.9
[5]; read-out: bioavailability Ft
  bioavailability: ≥ 99.9%
[5]; read-out: half-life T1/2
  half-life: ≥ 3.34 h
[6]
  weight gain or feed intake versus control group: No difference
[6]; observation for 24 hrs
  death: No death was observed
[7]
  IC50: ≥ 10 µM
[8]
  Toxicity, Cytotoxicity evaluation: Not detected
[9]; 10 µM of the compound
  inhibition rate (hERG ligand binding): ≤ 50%
[9]; summary Table 11
  Toxicity, hERG ligand binding assay evaluation: Not detected
[10]; all doses of each strain, regardless of the metabolic activation
  number of back-mutant colonies versus negative control group: did not exceed twice the number of back-mutant colonies of the negative control group
[10]; each strain, presence and absence of metabolic activation
  dose-dependent increase of back-mutant colonies: no dose-dependent increase was observed
[10]; summary Table 11
  Toxicity, Genotoxicity evaluation: Not detected
[11]; Stored at 4°C, After 1 day, 200 µg/ml
  Stability (%): 118±21.4%
[11]; Stored at 4°C, After 1 day, 1000 µg/ml
  Stability (%): 76.5±11.7%
[11]; Stored at 4°C, After 1 day, 3000 µg/ml
  Stability (%): 84.8±17.9%
[11]; Stored at 4°C, After 3 days, 200 µg/ml
  Stability (%): 125±40.2%
[11]; Stored at 4°C, After 3 days, 1000 µg/ml
  Stability (%): 87.6±9.26%
[11]; Stored at 4°C, After 3 days, 3000 µg/ml
  Stability (%): 94.8±2.55%
[11]; Stored at 4°C, After 7 days, 200 µg/ml
  Stability (%): 88.3±17.3%
[11]; Stored at 4°C, After 7 days, 1000 µg/ml
  Stability (%): 80.1±27.7%
[11]; Stored at 4°C, After 7 days, 3000 µg/ml
  Stability (%): 89.7±8.30%
[11]; Stored at 4°C, After 10 days, 200 µg/ml
  Stability (%): 93.8±44.8%
[11]; Stored at 4°C, After 10 days, 1000 µg/ml
  Stability (%): 79.5±22.0%
[11]; Stored at 4°C, After 10 days, 3000 µg/ml
  Stability (%): 99.0±3.87%
[11]; Stored at RT, After 1 day, 200 µg/ml
  Stability (%): 84.3±4.10%
[11]; Stored at RT, After 1 day, 1000 µg/ml
  Stability (%): 82.7±16.3%
[11]; Stored at RT, After 1 day, 3000 µg/ml
  Stability (%): 90.5±6.44%
[11]; Stored at RT, After 3 days, 200 µg/ml
  Stability (%): 76.3±8.12%
[11]; Stored at RT, After 3 days, 1000 µg/ml
  Stability (%): 82.7±37.0%
[11]; Stored at RT, After 3 days, 3000 µg/ml
  Stability (%): 80.5±5.01%
[11]; Stored at RT, After 7 days, 200 µg/ml
  Stability (%): 80.9±14.6%
[11]; Stored at RT, After 7 days, 1000 µg/ml
  Stability (%): 75.4±6.66%
[11]; Stored at RT, After 7 days, 3000 µg/ml
  Stability (%): 101±13.2%
[11]; Stored at RT, After 10 days, 200 µg/ml
  Stability (%): 90.3±23.2%
[11]; Stored at RT, After 10 days, 1000 µg/ml
  Stability (%): 94.2±9.17%
[11]; Stored at RT, After 10 days, 3000 µg/ml
  Stability (%): 92.2±2.17%
[12]
  % hA1: 37.9%
[13]
  % hA2A: 17.7%
[14]
  death after single dose: no animals died
[15]
  Toxicity, Single-dose toxicity evaluation: Not detected
